Earlier results in PMC9186412, “Rational Framework for the Design of Trp- and Arg-Rich Peptide Antibiotics Against Multidrug-Resistant Bacteria” (Frontiers in Microbiology, 2022).
Read-outs that look alike come from different tables or passages of the source.

Tested on: CDC AR isolates
Design: key: S (green), susceptible; I (blue), intermediate; R (red), resistant
Settings: data provided by the CDC, ref CDC, cited from earlier work
Excerpt: Supplement Table_3.XLSX, sheet "CDC AR isolates profiles" | column: G(-) strains

[1] = Acinetobacter baumannii AB273, CDC AR isolate
[2] = Acinetobacter baumannii AB274, CDC AR isolate
[3] = Acinetobacter baumannii AB275, CDC AR isolate
[4] = Acinetobacter baumannii AB276, CDC AR isolate
[5] = Enterobacter cloacae E62, CDC AR isolate
[6] = Enterobacter cloacae E544, CDC AR isolate
[7] = Enterobacter cloacae E545, CDC AR isolate
[8] = Enterobacter cloacae E546, CDC AR isolate
[9] = Escherichia coli EC541, CDC AR isolate
[10] = Escherichia coli EC543, CDC AR isolate
[11] = Escherichia coli EC544, CDC AR isolate
[12] = Escherichia coli EC549, CDC AR isolate
[13] = Klebsiella pneumoniae KP542, CDC AR isolate
[14] = Klebsiella pneumoniae KP548, CDC AR isolate
[15] = Klebsiella pneumoniae KP550, CDC AR isolate
[16] = Klebsiella pneumoniae KP552, CDC AR isolate
[17] = Pseudomonas aeruginosa PA229, CDC AR isolate
[18] = Pseudomonas aeruginosa PA230, CDC AR isolate
[19] = Pseudomonas aeruginosa PA231, CDC AR isolate
[20] = Pseudomonas aeruginosa PA232, CDC AR isolate
[21] = Pseudomonas aeruginosa PA239, CDC AR isolate

SMILES | Antibiotic susceptibility profile [1] | Antibiotic susceptibility profile [2] | Antibiotic susceptibility profile [3] | Antibiotic susceptibility profile [4] | Antibiotic susceptibility profile [5] | Antibiotic susceptibility profile [6] | Antibiotic susceptibility profile [7] | Antibiotic susceptibility profile [9] | Antibiotic susceptibility profile [10] | Antibiotic susceptibility profile [11] | Antibiotic susceptibility profile [12] | Antibiotic susceptibility profile [13] | Antibiotic susceptibility profile [14] | Antibiotic susceptibility profile [15] | Antibiotic susceptibility profile [16] | Antibiotic susceptibility profile [17] | Antibiotic susceptibility profile [18] | Antibiotic susceptibility profile [19] | Antibiotic susceptibility profile [20] | Antibiotic susceptibility profile [21] | other results
NCC[C@H](O)C(=O)N[C@@H]1C[C@H](N)[C@@H](O[C@H]2O[C@H](CN)[C@@H](O)[C@H](O)[C@H]2O)[C@H](O)[C@H]1O[C@H]1O[C@H](CO)[C@@H](O)[C@H](N)[C@H]1O [Amikacin] | R | S | R | I | S | S | S | R | S | S | S | R | S | S | S | S | R | S | S | R | Antibiotic susceptibility profile [8]: R
C[C@H]1[C@H](NC(=O)/C(=N\OC(C)(C)C(=O)O)c2csc(N)n2)C(=O)N1S(=O)(=O)O [Azreonam] |  |  |  |  |  |  |  | R | R | R | R | R | R | R | R | R | S | R | S | R | 
CO/N=C(\C(=O)N[C@@H]1C(=O)N2C(C(=O)[O-])=C(C[N+]3(C)CCCC3)CS[C@H]12)c1csc(N)n1 [Cefepime] | R | R | R | R | S | R | R | R | R | R | R | R | R | R | R | R | R | R | S | R | Antibiotic susceptibility profile [8]: R
CO/N=C(\C(=O)N[C@@H]1C(=O)N2C(C(=O)O)=C(COC(C)=O)CS[C@H]12)c1csc(N)n1 [Cefotaxime] | R | R | R | R | R | R | R | R | R | R | R | R | R | R | R |  |  |  |  |  | Antibiotic susceptibility profile [8]: R
CO/N=C(\C(=O)N[C@@H]1C(=O)N2C(C(=O)O)=C(CSc3nc(=O)c(=O)[nH]n3C)CS[C@H]12)c1csc(N)n1 [Ceftriaxone] | R | R | R | R | R | R | R | R | R | R | R | R | R | R | R |  |  |  |  |  | Antibiotic susceptibility profile [8]: R
O=C(O)c1cn(C2CC2)c2cc(N3CCNCC3)c(F)cc2c1=O [Ciprofloxacin] | R | R | R | R |  |  |  |  |  |  |  |  |  |  |  | R | R | R | R | R | 
C[C@@H](O)[C@H]1C(=O)N2C(C(=O)O)=C(S[C@@H]3CN[C@H](CNS(N)(=O)=O)C3)[C@H](C)[C@H]12 [Doripenem] | R | R | R | R | S | R | S | S | I | R | R | I | R | R | R | R | R | R | S | R | Antibiotic susceptibility profile [8]: R
C[C@@H](O)[C@H]1C(=O)N2C(C(=O)O)=C(S[C@@H]3CN[C@H](C(=O)Nc4cccc(C(=O)O)c4)C3)[C@H](C)[C@H]12 [Ertapenem] |  |  |  |  | S |  | S | I | R | R | R | R | R | R | R |  |  |  |  |  | 
C[C@@H](O)[C@H]1C(=O)N2C(C(=O)O)=C(SCCN=CN)C[C@H]12 [Imipenem] | R | R | R | S | S | R | I | I | S | R | I | I | R | R | R | R | R | R | R | R | Antibiotic susceptibility profile [8]: R
CN(C)c1ccc(O)c2c1C[C@H]1C[C@H]3[C@H](N(C)C)C(O)=C(C(N)=O)C(=O)[C@@]3(O)C(O)=C1C2=O [Minocycline] | I | I | I | S |  |  |  |  |  |  |  |  |  |  |  |  |  |  |  |  | 
C/C(=C\C(=O)OCCCCCCCCC(=O)O)C[C@@H]1OC[C@H](C[C@@H]2O[C@H]2[C@@H](C)[C@H](C)O)[C@@H](O)[C@H]1O [Mupirocin] |  |  |  |  |  |  |  |  |  |  |  |  |  |  |  |  |  |  |  |  | Antibiotic susceptibility profile (Staphylococcus aureus SA561, CDC AR isolate): R
CN(C)c1cc(CNCC(C)(C)C)c(O)c2c1C[C@H]1C[C@H]3[C@H](N(C)C)C(O)=C(C(N)=O)C(=O)[C@@]3(O)C(O)=C1C2=O [Omadacycline] |  |  |  |  |  |  |  |  |  |  |  | R | R | R | S |  |  |  |  |  | 
CCN1CCN(C(=O)N[C@@H](C(=O)N[C@@H]2C(=O)N3[C@@H]2SC(C)(C)[C@@H]3C(=O)O)c2ccccc2)C(=O)C1=O [Piperacillin] | R | R | R | R |  |  |  |  |  |  |  |  |  |  |  | R | R | R | S | R | 
